The text below walks through data of patent publication US10662445B2, “Process for the production of bio-butanol by fermentation of glycosidic waste matter” (priority 2018, dated 2020).

The nature of data set [1]: Organic-solvent extraction of microbial inhibitors from an agro-waste hydrolysate mimic. The class given is physicochemical. The settings on record: solvent bis-(2-ethylhexyl) sebacate. An excerpt:
Media composition was designed according to the inhibitory compound limit concentration reported in the literature for bio-butanol producing solventogenic Clostridia (Baral et al. Microbial inhibitors: formation and effects on acetone-butanol-ethanol fermentation of lignocellulosic biomass. Applied microbiology and biotechnology, Vol. 98(22), 2014: 9151-9172; Qureshi et al. Production of butanol (a biofuel) from agricultural residues: Part I—Use of barley straw hydrolysate. Biomass and bioenergy, Vol. 34(4), 2010: 559-565). Different volume ratio of the hydrolysate mimic and organic solvents, such as (5:1), (3:1), (2:1), (1:1) and (1:2) (vaqueous:vorganic) were tried in order to minimize extractant expenditure. Organic and aqueous phase mixing was carried out by a propeller impeller. Rotation rate (100, 200, 250, 300 and 400 rpm) and operation-time (15, 30, 45, 60 and 90 min) were tested at room temperature (25° C.). A comparative study between settling through separating funnel vs. centrifugal force assisted separation was also made to guarantee an optimal recovery of the broth phase.
A complex mixture of several reduced sugar compounds (e.g. as glucose, fructose, and xylose) and microbial inhibitors (furfural, HMF, acetic acid, levulinic acid, vanillin, vanillic acid, feluric acid and syringaldehyde) were produced during the pretreatment step (hydrolysis). In order to analyse these compounds, liquid samples were collected and analyzed using liquid chromatography-mass spectrometry (LC-MS) and liquid chromatography-tandem mass spectrometry (LC/MS-MS) equipped with a ZORBAX Carbohydrate column (5 μm, 150×4.6 mm ID column) (Agilent Technologies, USA) with D6 glucose as the internal standard and a Biobasic-18 column (5 μm, 250×4.6 mm ID) (Agilent Technologies, USA) with phenylethanol-D5 as the internal standard. […] Methanol water (8:2) and acetonitrile water (8.5:1.5) were used to dilute the sample before inhibitor and carbohydrate analysis. […]

Data set [2] relates to solventogenic Clostridia (ABE fermentation). The settings on record: cited from earlier work.
A further data set relates to cellulase enzyme. The settings on record: cited from earlier work.
Setting [3] is: homogenizer rotational speed 100 rpm.
Where [4] appears, read: homogenizer rotational speed 200 rpm.
[5] abbreviates: homogenizer rotational speed 250 rpm.
[6] abbreviates: homogenizer rotational speed 300 rpm.
[7] abbreviates: homogenizer rotational speed 400 rpm.

SMILES strings stand for the structures.

Take `COc1cc(C=O)cc(OC)c1O` [Syringaldehyde, syringaldehyde]: the “Inhibitor extraction, phase separation by centrifugal force” value in data set [1] (setting [3]), in data set [1] (setting [4]), in data set [1] (setting [5]), in data set [1] (setting [6]) and in data set [1] (setting [7]) was 100% in each case. The “Inhibitor extraction, phase separation by separating funnel” value in data set [1] (setting [3]), in data set [1] (setting [4]), in data set [1] (setting [5]), in data set [1] (setting [6]) and in data set [1] (setting [7]) was 100% in each case. Also, in data set [2] (ABE fermentation), the Inhibitory concentration is recorded as more than 0.05 g/L. Further, the “Concentration that stopped ABE production” value in data set [2] is 2. (0.3-1.0 g/L) stopped ABE production. The “Concentration showing strong inhibition on cellulase enzyme activity” value in the data set on cellulase enzyme was 1. (0.05 g/L) showed strong inhibition.
